Data on six cell lines can be found in the supplement of paper PMC10307832.

Compound in assay [1]: C[C@]1(c2nc3c(C(N)=O)cccc3[nH]2)CCCN1 [Veliparib] + COc1cc2c(Oc3ccc(NC(=O)C4(C(=O)Nc5ccc(F)cc5)CC4)cc3F)ccnc2cc1OCCCN1CCOCC1 [Foretinib] (partner 0.25 µM)
Briefly: relative viability (nuclei count vs DMSO), 5 days (fraction); higher = more cells survive. Put shortly:
(§1)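 Lung cancer cell lines were pin-tool dosed in 1536-well plates on the day after seeding, with either a lone drug or a fixed anchor-drug dose plus five library-drug doses (not always all listed) in √10 steps. Nuclei were counted on 4× images after 5 days. Relative viability is the ratio of treated-well to vehicle-well nuclei counts, with each value a median of duplicate plates.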

Compound in assay [2]: COC1=CC=C(C=C1)CN2C=CC3=C2C=C(C=C3)C(=O)NO + CC1(C)CCC(c2ccc(Cl)cc2)=C(CN2CCN(c3ccc(C(=O)NS(=O)(=O)c4ccc(N[C@H](CCN5CCOCC5)CSc5ccccc5)c(S(=O)(=O)C(F)(F)F)c4)cc3)CC2)C1 [Navitoclax] (partner 0.5 µM)
The description is as above. Put shortly: as §1

For NCI-H1793, the relative viability in assay [1] (first compound 0.02 µM) turned out to be 0.652; in assay [1] (first compound 0.06325 µM) it was 0.608; in assay [1] (first compound 0.2 µM), 0.814; in assay [1] (first compound 0.6325 µM), 0.747; in assay [1] (first compound 2 µM), 0.794; in assay [2] (first compound 0.08 µM), 0.461. Moreover, the relative viability in assay [2] (first compound 0.253 µM) was 0.672; in assay [2] (first compound 0.8 µM), 0.479; in assay [2] (first compound 2.53 µM), 0.406; in assay [2] (first compound 8 µM) it was 0.424.

With NCI-H1299, the relative viability in assay [1] (first compound 0.02 µM) worked out at 1.16; in assay [1] (first compound 0.06325 µM), 1.04; in assay [1] (first compound 0.2 µM), 1.05; in assay [1] (first compound 0.6325 µM) it was 1.04; in assay [1] (first compound 2 µM) it was 1.08; in assay [2] (first compound 0.08 µM), 1.01. Further, the relative viability in assay [2] (first compound 0.253 µM) amounted to 1.06; in assay [2] (first compound 0.8 µM), 1.07; in assay [2] (first compound 2.53 µM) it was 1.07; in assay [2] (first compound 8 µM), 1.02.

Take NCI-H1944: the relative viability was 0.806 in assay [1] (first compound 0.02 µM); 0.906 in assay [1] (first compound 0.06325 µM); 0.731 in assay [1] (first compound 0.2 µM); 0.817 in assay [1] (first compound 0.6325 µM); 0.813 in assay [1] (first compound 2 µM); 0.998 in assay [2] (first compound 0.253 µM). The figures for the relative viability in assay [2] (first compound 0.8 µM), in assay [2] (first compound 2.53 µM) and in assay [2] (first compound 8 µM) were 1.02, 1.08 and 1.08, respectively.

In the case of NCI-H1734, the relative viability in assay [1] (first compound 0.02 µM) amounted to 0.797; in assay [1] (first compound 0.06325 µM), 0.85; in assay [1] (first compound 0.2 µM), 0.886; in assay [1] (first compound 0.6325 µM), 0.832; in assay [1] (first compound 2 µM), 0.836; in assay [2] (first compound 0.253 µM) it was 0.899. The relative viability in assay [2] (first compound 0.8 µM) was 0.947; in assay [2] (first compound 2.53 µM) it was 0.805; in assay [2] (first compound 8 µM) it was 0.882.

For Calu-6, the relative viability in assay [1] (first compound 0.02 µM) turned out to be 0.967; in assay [1] (first compound 0.06325 µM), 0.82; in assay [1] (first compound 0.2 µM), 0.852; in assay [1] (first compound 0.6325 µM), 0.84; in assay [1] (first compound 2 µM) it was 0.969; in assay [2] (first compound 0.08 µM), 0.809. Besides, the relative viability was 0.84 in assay [2] (first compound 0.253 µM), 0.805 in assay [2] (first compound 0.8 µM), 0.828 in assay [2] (first compound 2.53 µM) and 0.698 in assay [2] (first compound 8 µM).

For H3255, the relative viability in assay [1] (first compound 0.02 µM) worked out at 0.739; in assay [1] (first compound 0.06325 µM), 0.462; in assay [1] (first compound 0.2 µM), 0.811; in assay [1] (first compound 0.6325 µM), 0.78; in assay [1] (first compound 2 µM) it was 0.795; in assay [2] (first compound 0.08 µM), 0.574. Moreover, the relative viability came out at 0.501 in assay [2] (first compound 0.253 µM), 0.503 in assay [2] (first compound 0.8 µM), 0.541 in assay [2] (first compound 2.53 µM) and 0.46 in assay [2] (first compound 8 µM).
